Laboratory results from paper PMC10315065 (Journal of Innate Immunity, 2023).
Starred links: 1 amine or outer side, 2 acyl side, 3 side chain; linkers in the order of their positions; H or OH if unused. Positions of bridges follow the written chain, without caps; N, C: chain ends. Non-standard residues stand in square brackets, D forms with d. Residues, ends and D or L forms follow the SMILES beside them. Chains are numbered I, II in the order given. Actinocin(9to1) = Cc1c2oc3c(C)ccc(C(=O)[*:1])c3nc-2c(C(=O)[*:2])c(N)c1=O; NMeV = CN[C@H](C(=O)O)C(C)C; Sar = CNCC(=O)O

How the values were obtained:
J774 macrophages = test: Flow cytometry binding/internalization of labelled peptide, J774; type: cell-based, mouse; conditions: n = 3
peritoneal macrophages = test: Flow cytometry binding/uptake of LL-37-FAM, peritoneal macrophages; type: cell-based, C57BL/6 mice
cell surface GAPDH, J774 = type: cell-based, mouse; conditions: KN-62 100 nM, 4 h; J774 wild-type; n = 3
[1] = test system: intracellular Mycobacterium tuberculosis in macrophages; conditions: cited from earlier work; for autophagy activation and M.tb elimination: via induction of cathelicidin LL-37
[2] = test system: GAPDH KD and wild-type cells; conditions: induced with actinomycin D; cited from earlier work
THP-1 cells = test: Endocytosis of BSA-FITC; type: cell-based; conditions: BSA-FITC 10 μg, 37°C, 30 min; PMA-activated THP-1
[3] = Downstream effects of scrambled peptide; conditions: statement on negative control peptide
TLR-4, THP-1 cells = test: TLR-4 membrane expression on LPS treatment; type: cell-based; conditions: LPS 1 ug, 24 h; PMA-activated THP-1

Compound: 5-FAM-LC-LLGDFFRKSKEKIGKEFKRIVQRIKDFLRNLVPRTES [LL-37-FAM]
- LL-37 membrane accumulation and uptake, IFNγ-treated (J774 macrophages; IFNγ-treated subsets vs control cells): initial higher accumulation of FAM-LL-37 at their membrane, followed by increase in LL-37 uptake into the cytoplasm
- cell surface LL-37 binding and uptake, M.tb infected (peritoneal macrophages): significantly enhanced

Compound: CN([C@@H](Cc1ccc(OS(=O)(=O)c2cccc3cnccc23)cc1)C(=O)N1CCN(c2ccccc2)CC1)S(=O)(=O)c1cccc2cnccc12 [KN-62, 1-(N,O-bis(5-Isoquinolinesulfonyl)-N-methyl-L-tyrosyl)-4-phenylpiperazine]
- LL-37 uptake with KN-62 (J774 macrophages; KN-62 100 nM, 4 h, J774 wild-type): inhibition of LL-37 uptake into cells
- cell surface GAPDH expression with KN-62 (cell surface GAPDH, J774): decrease in cell surface GAPDH expression
- effect on LL-37-induced anti-mycobacterial effects ([1]; KN-62): does not inhibit LL-37-induced anti-mycobacterial effects

Compound: Cc1c2oc3c(C)ccc(C(=O)N[C@@H]4C(=O)N[C@H](C(C)C)C(=O)N5CCC[C@H]5C(=O)N(C)CC(=O)N(C)[C@@H](C(C)C)C(=O)O[C@@H]4C)c3nc-2c(C(=O)N[C@@H]2C(=O)N[C@H](C(C)C)C(=O)N3CCC[C@H]3C(=O)N(C)CC(=O)N(C)[C@@H](C(C)C)C(=O)O[C@@H]2C)c(N)c1=O [actinomycin D] (I: T[dV]P[Sar][NMeV] / II: T[dV]P[Sar][NMeV]; ester I:1-I:C, II:1-II:C; linker I:N-II:N via Actinocin(9to1))
- induction of apoptosis, GAPDH KD vs wild-type [2]: comparable

Compound: O=C(O)CCCc1ccccc1 [phenylbutyrate]
- autophagy activation and M.tb elimination [1]: activate the antibacterial autophagy mechanism

Compound: C=C1/C(=C\C=C2/CCC[C@]3(C)[C@@H]([C@H](C)CCCC(C)(C)O)CC[C@@H]23)C[C@@H](O)C[C@@H]1O [vitamin 1,25-D3]
- autophagy activation and M.tb elimination [1]: activate the antibacterial autophagy mechanism

Compound: BSA: BSA-FITC, endocytosis control
- endocytosis of BSA, empty vector vs GAPDH KD (THP-1 cells): could equally well carry out endocytosis of BSA

Compound: GLKLRFEFSKIKGEFLKTPEVRFRDIKLKDNRISVQR [scrambled peptide]
- downstream effects of scrambled peptide [3]: does not show downstream effects like the LL-37 peptide

Compound: lipopolysaccharide
- TLR-4 membrane expression, empty vector and GAPDH KD (TLR-4, THP-1 cells): upregulation of TLR-4 membrane expression levels
